Results from patent publication US6495588B2, “Scytonemin and methods of using thereof” (The Regents of the University of California, priority 2000, dated 2002).

Tests used:
[1] = test system: rheumatoid synovial fibroblasts (RSFs); experiment: [3H]-thymidine incorporation assay, PDGF-BB stimulated rheumatoid synovial fibroblasts; type: cell-based, human; details: induced by platelet-derived growth factor (1 nM PDGF-BB); listed as SCY; read-out: IC50 rheumatoid synovial fibroblast proliferation
Experimental: To determine the effect of SCY on the proliferation of several cell types, proliferation was measured in response to growth factor or serum by tritiated thymidine uptake. Rheumatoid synovial fibroblasts (RSFs) obtained from Dr. Gene Mochan at PCOM (Philadelphia, Pa.), normal human lung fibroblasts (NHLFs) (Clonetics, San Diego, Calif.), human umbilical vein endothelial cells (HUVECs) (Clonetics, San Diego, Calif.), and Jurkat T cells (ATCC, Rockville, Md.) were plated in 96 well cell culture plates (Falcon, Franklin Lakes, N.J.). About 1.2×10^4 RSF cells/well and about 1×10^4 NHLF cells/well were plated in EMEM (Eagle's Minimum Essential Medium) (Sigma, St. Louis, Mo.) comprising 10 units penicillin-streptomycin (penstrep) (GibcoBRL, Grand Island, N.Y.) and 10% FBS. About 5×10^3 HUVEC cells/well were plated in CSC media (Cell Systems, Seattle, Wash.) with 10% FBS. Fibroblasts were allowed to adhere for about 6 to about 24 hours at 37° C., 5% CO2 and the media was changed to EMEM or CSC, 0.2% FBS and incubated for 24 hours. About 2×10^4 Jurkat T cells/well (ATCC, Rockville, Md.) were plated in RPMI (Gibco BRL, Grand Island, N.Y.), comprising 10% FBS and 10 units penstrep.
All cells were incubated with compound or vehicle (0.5% DMSO) for 15 minutes at room temperature. […] [^3H]-thymidine incorporation into the DNA was measured on a Packard Top-Count.

[2] = test system: PMA-induced cell proliferation in mouse ear epidermis; experiment: Mouse ear cell proliferation assay (IUdR incorporation, PCNA histology); type: in vivo
Experimental: To determine the efficacy of scytonemin as an anti-proliferative agent in vivo, the following assay was conducted. On day one, test compounds were delivered in 10 μl 20% DMSO, 80% acetone and applied to both the inner and outer pinnae of left ears (20 μl total) of male, Swiss Webster mice (Taconic Farms, Germantown, N.Y.). The right ears received only vehicle. One hour post test compound application, 4 μg/ear PMA (Sigma, St. Louis, Mo.) in 10 μl acetone was applied to the inner pinnae of each left ear and 10 μl acetone was applied to each right ear. Four hours post test compound application, the each test compound was again applied in the same manner. On day two, the test compounds were applied twice with a four-hour interval between each application. On day three, the test compounds and PMA were applied as they had been on day one.
One hour after the final test compound applications, each mouse was injected with 0.6 ml of a solution containing the thymidine analogue, 5-iodo-I^125-2′-deoxyuridine (IUdR) (2 μCi-I^125/mouse) and, to inhibit the endogenous deoxythymidilic acid synthetase, fluorodeoxyuridine (FUdR) ([…]). This IUdR/FUdR solution was made up in RPMI 1640 media. Eighteen hours post injection, the mice were euthanized via CO2 inhalation, the ears were excised and soaked individually in a 70% EtOH solution overnight.
IUdR incorporation was then measured using a Beckman Gamma counter, Model 5500B. […] Therefore, scytoneman compounds may be used to reduce, prevent, inhibit, modulate, or attenuate cell proliferation.
Additionally, immunostaining with Proliferating Cell Nuclear Antigen (PCNA) was used as a proliferation marker to identify proliferating cells. PCNA is a cofactor for DNAt […]. Expression levels of PCNA fluctuate over the cell cycle. […] Low expression levels of PCNA indicate non-cycling cells.
Histological analysis was used to determine the effect of scytonemin on the thickness of the epidermal layer of skin, the mitotic index of cells in the epidermal layer, the number of cells in the epidermis, and the amount of immune cell infiltration. PCNA antibodies were used to detect the presence of PCNA in cells and a peroxidase-Ni/DAB development system was used to stain PCNA-positive cells black and hematoxlin was used as a nuclear blue counterstain using conventional methods.

scytonemin
IC50 [1]: ~1500 nM | cells actively proliferating (PCNA staining) ([2]; +PMA 4 μg/ear, scytonemin 1 mg/ear, dexamethasone 0.15 mg/ear): about 60% | mitotic index of epidermal cells ([2]; PMA-treated mouse ears, 5% SCY): reduces the mitotic index | cell proliferation in vivo (IUdR incorporation) ([2]; topical, PMA 4 μg/ear): effectively reduced or prevented cell proliferation in vivo
